Measured values from patent publication US11655235B2, “Pyrrolidine and piperidine compounds” (YUHAN CORPORATION, priority 2019, dated 2023).

What was measured:
Assay type in all cases: biochemical
Recombinant human FAP = biological target: T1, Recombinant human FAP (Homo sapiens, UniProt Q12884); test: FAP inhibition, fluorogenic substrate Z-Gly-Pro-AMC; settings: recombinant human FAP, substrate Z-Gly-Pro-AMC
T1 construct: purchased R&D systems
T1 sequence (Q12884 1-760): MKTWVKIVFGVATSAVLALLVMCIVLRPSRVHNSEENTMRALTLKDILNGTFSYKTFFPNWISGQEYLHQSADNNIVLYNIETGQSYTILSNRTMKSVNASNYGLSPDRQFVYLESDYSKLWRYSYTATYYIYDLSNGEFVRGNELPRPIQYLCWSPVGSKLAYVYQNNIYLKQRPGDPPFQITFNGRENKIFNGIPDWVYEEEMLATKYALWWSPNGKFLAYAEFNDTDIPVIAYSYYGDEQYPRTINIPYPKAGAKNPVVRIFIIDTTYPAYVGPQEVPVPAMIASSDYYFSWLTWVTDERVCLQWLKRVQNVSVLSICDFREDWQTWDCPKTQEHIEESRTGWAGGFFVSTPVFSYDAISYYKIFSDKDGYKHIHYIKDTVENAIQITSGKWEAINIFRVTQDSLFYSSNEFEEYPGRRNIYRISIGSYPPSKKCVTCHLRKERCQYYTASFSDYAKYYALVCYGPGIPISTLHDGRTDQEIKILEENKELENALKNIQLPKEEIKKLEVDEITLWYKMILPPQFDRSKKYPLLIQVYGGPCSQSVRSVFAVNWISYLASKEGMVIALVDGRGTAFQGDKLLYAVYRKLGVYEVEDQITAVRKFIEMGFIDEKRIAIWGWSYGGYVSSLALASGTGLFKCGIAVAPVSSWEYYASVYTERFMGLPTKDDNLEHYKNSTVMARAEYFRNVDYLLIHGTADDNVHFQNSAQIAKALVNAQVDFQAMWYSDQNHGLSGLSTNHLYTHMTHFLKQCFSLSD
Method in brief: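 Eight-point compound dilutions (≤0.1% DMSO) were incubated at 25° C with 10 ng recombinant human FAP in Tris pH 7.5/1 M NaCl/BSA buffer and Z-Gly-Pro-AMC. Inhibition was taken as % drop in fluorescence rate (380/460 nm) against uninhibited control; IC50 came from a four-parameter logistic fit.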

recombinant human DPP9 = biological target: T2, recombinant human DPP9 (Homo sapiens, UniProt Q86TI2); test: DPP9 inhibition, fluorogenic substrate H-Gly-Pro-AMC; settings: recombinant human DPP9
T2 construct: purchased R&D Systems
Method in brief: (§1)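 Inhibitors are titrated in an 8-point series into the enzyme's assay buffer (DMSO no more than 0.5%). Substrate cleavage at 25 °C is followed by fluorescence, excitation 380 nm and emission 460 nm. IC50 values come from a four-variable logistic model.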

recombinant human DPP7 = biological target: T3, recombinant human DPP7 (Homo sapiens, UniProt Q9UHL4); test: DPP7 inhibition, fluorogenic substrate Lys-Pro-AMC; settings: recombinant human DPP7
T3 construct: purchased R&D Systems
Method in brief: as §1

recombinant human DPP8 = biological target: T4, recombinant human DPP8 (Homo sapiens, UniProt Q6V1X1); test: DPP8 inhibition, fluorogenic substrate Z-Ala-Pro-AMC; settings: recombinant human DPP8
T4 construct: purchased PBS Bioscience
Method in brief: as §1

DPP4 = DPP4 (Homo sapiens, UniProt P27487); test: DPP4 inhibition, fluorogenic substrate H-Gly-Pro-AMC; parameters: purchased R&D Systems; settings: recombinant human DPP4
recombinant human PREP = biological target: T5, recombinant human PREP (Homo sapiens, UniProt P48147); test: PREP inhibition, fluorogenic substrate Z-Gly-Pro-AMC; settings: Inhibitory Activity (IC50, nM) PREP, recombinant human PREP
T5 construct: purchased R&D System
T5 sequence (P48147 1-710): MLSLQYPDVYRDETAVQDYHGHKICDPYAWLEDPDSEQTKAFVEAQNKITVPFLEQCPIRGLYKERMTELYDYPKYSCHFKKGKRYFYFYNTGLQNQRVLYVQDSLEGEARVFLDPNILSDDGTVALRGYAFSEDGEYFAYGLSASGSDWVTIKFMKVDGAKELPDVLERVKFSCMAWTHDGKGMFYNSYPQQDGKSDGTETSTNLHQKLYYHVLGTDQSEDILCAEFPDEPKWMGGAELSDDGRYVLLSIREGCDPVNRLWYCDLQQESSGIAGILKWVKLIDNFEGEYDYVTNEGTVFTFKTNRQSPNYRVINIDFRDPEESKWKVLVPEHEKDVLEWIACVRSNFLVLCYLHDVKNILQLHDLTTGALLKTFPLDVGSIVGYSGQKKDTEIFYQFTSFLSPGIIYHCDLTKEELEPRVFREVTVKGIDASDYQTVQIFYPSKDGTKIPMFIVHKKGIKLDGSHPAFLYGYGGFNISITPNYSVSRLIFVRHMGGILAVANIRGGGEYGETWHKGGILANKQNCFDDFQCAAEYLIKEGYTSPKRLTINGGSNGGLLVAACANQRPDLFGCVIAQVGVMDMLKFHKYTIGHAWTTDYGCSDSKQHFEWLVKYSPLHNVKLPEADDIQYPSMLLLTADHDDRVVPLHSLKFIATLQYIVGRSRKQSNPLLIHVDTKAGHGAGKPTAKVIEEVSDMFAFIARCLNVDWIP
Method in brief: as §1

DPP4, sequence (P27487 whole entry): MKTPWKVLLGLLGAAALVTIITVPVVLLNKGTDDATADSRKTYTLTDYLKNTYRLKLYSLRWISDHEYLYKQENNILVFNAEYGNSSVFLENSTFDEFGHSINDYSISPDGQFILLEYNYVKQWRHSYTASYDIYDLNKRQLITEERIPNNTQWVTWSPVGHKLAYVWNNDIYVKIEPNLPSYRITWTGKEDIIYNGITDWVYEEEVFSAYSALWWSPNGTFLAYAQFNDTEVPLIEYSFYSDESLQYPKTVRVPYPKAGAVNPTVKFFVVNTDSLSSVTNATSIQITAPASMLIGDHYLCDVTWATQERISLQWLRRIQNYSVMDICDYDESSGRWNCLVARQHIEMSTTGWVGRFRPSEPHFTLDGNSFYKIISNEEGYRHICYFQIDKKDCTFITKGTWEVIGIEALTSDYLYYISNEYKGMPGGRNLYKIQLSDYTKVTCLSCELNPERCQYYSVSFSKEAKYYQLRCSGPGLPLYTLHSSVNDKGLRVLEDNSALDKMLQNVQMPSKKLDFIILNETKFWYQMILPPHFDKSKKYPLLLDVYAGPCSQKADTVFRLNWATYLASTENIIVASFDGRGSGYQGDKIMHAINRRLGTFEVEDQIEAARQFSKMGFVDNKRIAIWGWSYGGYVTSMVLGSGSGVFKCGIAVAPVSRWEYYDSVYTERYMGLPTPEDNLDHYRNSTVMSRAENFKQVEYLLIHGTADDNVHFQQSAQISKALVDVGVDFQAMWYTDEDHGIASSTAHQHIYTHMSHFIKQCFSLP
T2 sequence (Q86TI2 whole entry): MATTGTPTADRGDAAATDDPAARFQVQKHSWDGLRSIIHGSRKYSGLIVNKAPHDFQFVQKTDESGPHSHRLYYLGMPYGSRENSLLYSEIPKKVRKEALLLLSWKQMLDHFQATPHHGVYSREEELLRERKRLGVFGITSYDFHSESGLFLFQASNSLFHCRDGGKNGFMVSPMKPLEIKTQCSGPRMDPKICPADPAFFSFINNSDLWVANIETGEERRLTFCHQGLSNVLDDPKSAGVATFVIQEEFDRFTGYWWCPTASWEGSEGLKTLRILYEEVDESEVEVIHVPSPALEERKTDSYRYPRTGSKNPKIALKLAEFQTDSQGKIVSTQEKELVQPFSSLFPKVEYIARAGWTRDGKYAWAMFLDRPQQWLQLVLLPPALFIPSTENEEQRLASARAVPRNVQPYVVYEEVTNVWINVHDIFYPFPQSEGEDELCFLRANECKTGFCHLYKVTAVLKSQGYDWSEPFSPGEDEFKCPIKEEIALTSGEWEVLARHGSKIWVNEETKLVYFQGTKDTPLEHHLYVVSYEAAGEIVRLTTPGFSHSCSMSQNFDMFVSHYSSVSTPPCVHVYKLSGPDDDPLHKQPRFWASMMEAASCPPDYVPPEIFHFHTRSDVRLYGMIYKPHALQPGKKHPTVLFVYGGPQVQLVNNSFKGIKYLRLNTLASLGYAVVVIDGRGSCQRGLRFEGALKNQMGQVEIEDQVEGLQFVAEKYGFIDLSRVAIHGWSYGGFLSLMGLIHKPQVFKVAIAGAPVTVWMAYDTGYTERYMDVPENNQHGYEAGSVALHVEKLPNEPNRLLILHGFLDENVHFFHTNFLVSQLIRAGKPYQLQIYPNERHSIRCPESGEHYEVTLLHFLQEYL
T4 sequence (Q6V1X1 whole entry): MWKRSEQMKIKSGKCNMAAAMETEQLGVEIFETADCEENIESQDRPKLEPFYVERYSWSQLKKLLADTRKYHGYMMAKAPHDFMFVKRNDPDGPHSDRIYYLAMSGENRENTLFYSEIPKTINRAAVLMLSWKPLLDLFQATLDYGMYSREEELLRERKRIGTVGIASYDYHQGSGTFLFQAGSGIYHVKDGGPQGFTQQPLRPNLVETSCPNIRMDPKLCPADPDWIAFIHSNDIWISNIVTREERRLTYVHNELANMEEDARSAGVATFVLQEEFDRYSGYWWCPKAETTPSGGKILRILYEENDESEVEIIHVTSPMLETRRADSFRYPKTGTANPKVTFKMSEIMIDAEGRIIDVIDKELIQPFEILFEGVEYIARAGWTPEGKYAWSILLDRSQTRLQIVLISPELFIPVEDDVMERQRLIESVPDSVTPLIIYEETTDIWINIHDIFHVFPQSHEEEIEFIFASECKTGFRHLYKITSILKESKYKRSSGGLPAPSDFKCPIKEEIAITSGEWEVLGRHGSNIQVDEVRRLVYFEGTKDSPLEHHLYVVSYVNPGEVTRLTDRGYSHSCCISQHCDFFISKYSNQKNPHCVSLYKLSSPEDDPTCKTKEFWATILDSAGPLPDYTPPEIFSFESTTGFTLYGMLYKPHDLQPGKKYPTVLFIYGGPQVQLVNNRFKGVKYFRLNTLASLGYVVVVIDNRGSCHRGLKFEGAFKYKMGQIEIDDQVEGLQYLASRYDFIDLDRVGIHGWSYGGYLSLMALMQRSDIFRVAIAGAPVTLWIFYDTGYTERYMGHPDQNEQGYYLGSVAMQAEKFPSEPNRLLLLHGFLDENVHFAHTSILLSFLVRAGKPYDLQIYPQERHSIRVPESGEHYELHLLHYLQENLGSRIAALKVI

IC50 (Recombinant human FAP) [µM] | IC50 (recombinant human DPP9) [µM] | IC50 (recombinant human DPP7) [µM] | IC50 (recombinant human DPP8) [µM] | IC50 (DPP4) [µM] | IC50 (recombinant human PREP) [nM] | SMILES
0.0015 | 18.8 | 3.47 | > 100 | > 10 | 8900 | N#C[C@@H]1CCCN1C(=O)CN1CC[C@H](Nc2cc(F)cc3ncccc23)C1 [Example 236, (2S)-1-[2-[(3S)-3-[(7-fluoro-5-quinolyl)amino]pyrrolidin-1-yl]acetyl]pyrrolidine-2-carbonitrile]
0.0015 | 34.6 | 0.746 | 22.6 | 9.29 | 6600 | COc1cc(N[C@H]2CCN(CC(=O)N3CCC[C@H]3C#N)C2)c2cccnc2c1 [Example 237, (2S)-1-[2-[(3S)-3-[(7-methoxy-5-quinolyl)amino]pyrrolidin-1-yl]acetyl]pyrrolidine-2-carbonitrile]
0.0014 | 29.3 | 2.21 | > 100 | > 10 | 3930 | N#C[C@@H]1CCCN1C(=O)CN1CC[C@H](Nc2cc(C(F)(F)F)cc3ncccc23)C1 [Example 238, (2S)-1-[2-[(3S)-3-[[7-(trifluoromethyl)-5-quinolyl]amino]pyrrolidin-1-yl]acetyl]pyrrolidine-2-carbonitrile]
0.006 | 43.9 | 7.28 | 74.3 | > 10 | 9980 | Cc1ccc2ncccc2c1N[C@H]1CCN(CC(=O)N2CCC[C@H]2C#N)C1 [Example 239, (2S)-1-[2-[(3S)-3-[(6-methyl-5-quinolyl)amino]pyrrolidin-1-yl]acetyl]pyrrolidine-2-carbonitrile]
0.0045 | 48 | 17 | 77.3 | > 10 | 13000 | N#C[C@@H]1CCCN1C(=O)CN1CC[C@H](Nc2c(F)ccc3ncccc23)C1 [Example 241, (2S)-1-[2-[(3S)-3-[(6-fluoro-5-quinolyl)amino]pyrrolidin-1-yl]acetyl]pyrrolidine-2-carbonitrile]
0.0017 | 19.3 | 1.7 | 11 | > 10 | 8440 | Cc1ccc(N[C@H]2CCN(CC(=O)N3CCC[C@H]3C#N)C2)c2cccnc12 [Example 242, (2S)-1-[2-[(3S)-3-[(8-methyl-5-quinolyl)amino]pyrrolidin-1-yl]acetyl]pyrrolidine-2-carbonitrile]
0.0009 | 21 | 2.56 | > 30 | > 10 | 11300 | N#C[C@@H]1CCCN1C(=O)CN1CC[C@H](Nc2ccc(OC(F)(F)F)c3ncccc23)C1 [Example 246, (2S)-1-[2-[(3S)-3-[[8-(trifluoromethoxy)-5-quinolyl]amino]pyrrolidin-1-yl]acetyl]pyrrolidine-2-carbonitrile]
0.0031 | 3.68 | 0.81 | 5.34 | 7.07 | 6160 | N#C[C@@H]1CCCN1C(=O)CN1CC[C@H](Nc2ccc(OCc3ccccc3)c3ncccc23)C1 [Example 248, (2S)-1-[2-[(3S)-3-[(8-benzyloxy-5-quinolyl)amino]pyrrolidin-1-yl]acetyl]pyrrolidine-2-carbonitrile]
0.006 | 5.77 | 0.489 | > 3 | 1.45 | 1050 | N#C[C@@H]1C[C@H](F)CN1C(=O)CN1CC[C@H](Nc2cnc3ccccc3c2)C1 [Example 249, (2S,4S)-4-fluoro-1-[2-[(3S)-3-(3-quinolylamino)pyrrolidin-1-yl]acetyl]pyrrolidine-2-carbonitrile]
0.0034 | 3.69 | 0.654 | 2.28 | 0.964 | 2160 | N#C[C@@H]1C[C@H](F)CN1C(=O)CN1CC[C@H](Nc2ccc3ncccc3c2)C1 [Example 250, (2S,4S)-4-fluoro-1-[2-[(3S)-3-(6-quinolylamino)pyrrolidin-1-yl]acetyl]pyrrolidine-2-carbonitrile]
0.0008 | 4.93 | 0.308 | 2.48 | 1.63 | 3320 | N#Cc1ccc2c(N[C@H]3CCN(CC(=O)N4C[C@@H](F)C[C@H]4C#N)C3)cccc2n1 [Example 252, 5-[[(3S)-1-[2-oxo-2-[(2S,4S)-2-cyano-4-fluoro-pyrrolidin-1-yl]ethyl]pyrrolidin-3-yl]amino]quinoline-2-carbonitrile]
0.0009 | 5.36 | 2.19 | 2.67 | 2.31 | 2220 | N#Cc1cnc2cccc(N[C@H]3CCN(CC(=O)N4C[C@@H](F)C[C@H]4C#N)C3)c2c1 [Example 253, 5-[[(3S)-1-[2-oxo-2-[(2S,4S)-2-cyano-4-fluoro-pyrrolidin-1-yl]ethyl]pyrrolidin-3-yl]amino]quinoline-3-carbonitrile]
0.0021 | 13.1 | 1.4 | 12.2 | 4.71 | 275 | COc1cnc2cccc(N[C@H]3CCN(CC(=O)N4C[C@@H](F)C[C@H]4C#N)C3)c2c1 [Example 254, (2S,4S)-4-fluoro-1-[2-[(3S)-3-[(3-methoxy-5-quinolyl)amino]pyrrolidin-1-yl]acetyl]pyrrolidine-2-carbonitrile]
0.0008 | 6.96 | 1.79 | 3.35 | 1.88 | 603 | N#C[C@@H]1C[C@H](F)CN1C(=O)CN1CC[C@H](Nc2cccc3ncc(Cl)cc23)C1 [Example 256, (2S,4S)-4-fluoro-1-[2-[(3S)-3-[(3-chloro-5-quinolyl)amino]pyrrolidin-1-yl]acetyl]pyrrolidine-2-carbonitrile]
0.0009 | 6.56 | 0.289 | 4.54 | 0.694 | 1530 | COc1cc(N[C@H]2CCN(CC(=O)N3C[C@@H](F)C[C@H]3C#N)C2)c2cccnc2c1 [Example 257, (2S,4S)-4-fluoro-1-[2-[(3S)-3-[(7-methoxy-5-quinolyl)amino]pyrrolidin-1-yl]acetyl]pyrrolidine-2-carbonitrile]
0.001 | 7.97 | 1.39 | > 100 | 1.83 | 1280 | N#C[C@@H]1C[C@H](F)CN1C(=O)CN1CC[C@H](Nc2cc(C(F)(F)F)cc3ncccc23)C1 [Example 258, (2S,4S)-4-fluoro-1-[2-[(3S)-3-[[7-(trifluoromethyl)-5-quinolyl]amino]pyrrolidin-1-yl]acetyl]pyrrolidine-2-carbonitrile]
